Laboratory results: patent publication US20060264460A1 (Wyeth, priority 2005, published 2006)
One block for each molecule: values may come before it.

Molecular target: T1, human Cot/Tpl2 kinase (Homo sapiens, UniProt P41279)
T1 construct: human Cot/Tpl2 kinase construct encoding residues 30-398; 6His (N); made in house; host or cells: Sf9 insect cells, baculovirus system (BD Biosciences)
Test: Tpl2/Cot kinase assay: GST-MEK1 phosphorylation detected by ELISA (DELFIA Eu)
Assay type: biochemical
Outline: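 Substrate phosphorylation (GST-MEK1 Ser217/221) quantified by DELFIA europium ELISA, yielding IC50 values. Reaction: 1 h at 30° C, pH 7.2 MOPS buffer, 50 uM ATP, 35 nM GST-MEK1, 0.4 nM monomeric His-Tpl2 purified from Sf9 cells, compounds at 1% final DMSO; stopped with EDTA.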

[1] = Tpl2/Cot kinase, GST-MEK1 substrate, 50 uM ATP, 1 h at 30° C., Table 2
[2] = Table 2, Tpl2/Cot kinase, GST-MEK1 substrate, 50 uM ATP
[3] = 0.4 nM Tpl2, 35 nM GST-MEK1, 50 uM ATP, 1 h at 30° C.
[4] = Tpl2/Cot kinase, GST-MEK1 substrate, 50 uM ATP

T1 sequence (P41279 30-398): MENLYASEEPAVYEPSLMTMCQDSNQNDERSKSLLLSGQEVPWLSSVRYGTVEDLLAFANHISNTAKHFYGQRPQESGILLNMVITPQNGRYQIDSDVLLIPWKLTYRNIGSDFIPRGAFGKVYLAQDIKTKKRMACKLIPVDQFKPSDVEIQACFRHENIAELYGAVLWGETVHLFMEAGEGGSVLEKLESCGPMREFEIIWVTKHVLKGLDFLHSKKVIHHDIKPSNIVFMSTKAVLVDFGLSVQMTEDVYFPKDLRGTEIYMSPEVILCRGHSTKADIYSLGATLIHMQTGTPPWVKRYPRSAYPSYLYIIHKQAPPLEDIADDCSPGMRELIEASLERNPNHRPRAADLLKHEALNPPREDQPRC

IC50 [1]: 18.9 nM
SMILES: CCNC(=O)N1CCC(n2cc(CNc3cc(Cl)c4ncc(C#N)c(Nc5ccc(F)c(Cl)c5)c4c3)nn2)CC1 [Example 931]

IC50 [1]: 24 nM
SMILES: CC(=O)N1C2CCC1CC(n1cc(CNc3cc(Cl)c4ncc(C#N)c(Nc5ccc(F)c(Cl)c5)c4c3)nn1)C2 (stereo not drawn) [Example 1053]

IC50 [1]: 19 nM
SMILES: CC(C)N1CCC[C@H]1CCn1cc(CNc2cc(Br)c3ncc(C#N)c(Nc4ccc(F)c(Cl)c4)c3c2)nn1 [Example 942]

IC50 [4]: 120 nM
SMILES: C[S+]([O-])Cn1cc(CNc2cc(Br)c3ncc(C#N)c(Nc4ccc(F)c(Cl)c4)c3c2)nn1 (stereo not drawn) [Example 703]

IC50 [4]: 200 nM
SMILES: CC1(C)OC[C@H](CNc2cc(Cl)c3ncc(C#N)c(Nc4ccc(F)c(Cl)c4)c3c2)O1 [Example 812]

IC50 [1]: 19 nM
SMILES: N#Cc1cnc2c(Cl)cc(NCc3cn(CC(O)c4ccncc4)nn3)cc2c1Nc1ccc(F)c(Cl)c1 (stereo not drawn) [Example 1001]

IC50 [2]: 150 nM
SMILES: CC1CC(C)CN(CCCn2cc(CNc3cc(Cl)c4ncc(C#N)c(Nc5ccc(F)c(Cl)c5)c4c3)nn2)C1 (stereo not drawn) [Example 610]

IC50 [4]: 58 nM
SMILES: CC(=O)N(CCNc1cc(Cl)c2ncc(C#N)c(Nc3ccc(F)c(Cl)c3)c2c1)Cc1cccnc1 [Example 843]

IC50 [4]: 270 nM
SMILES: CC(C)(C)OC(=O)N1CCCC1Cn1cc(CNc2cc(Br)c3ncc(C#N)c(Nc4ccc(F)c(Cl)c4)c3c2)nn1 (stereo not drawn) [Example 717]

IC50 [2]: 5.3 nM
SMILES: N#Cc1cnc2c(Cl)cc(NCc3cn(Cc4ccncc4)cn3)cc2c1Nc1ccc(F)c(Cl)c1 [Example 622]

IC50 [1]: 70 nM
SMILES: CC(C)CN1C2CCC1CC(n1cc(CNc3cc(Cl)c4ncc(C#N)c(Nc5ccc(F)c(Cl)c5)c4c3)nn1)C2 (stereo not drawn) [Example 1058]

IC50 [4]: 100 nM
SMILES: N#Cc1cnc2c(Cl)cc(NCc3nc[nH]n3)cc2c1Nc1ccc(F)c(Cl)c1 [Example 666]

IC50 [4]: 1.7 nM
SMILES: CN1CCC(CCn2cc(CNc3cc(Cl)c4ncc(C#N)c(Nc5ccc(F)c(Cl)c5)c4c3)nn2)CC1 [Example 696]

IC50 [1]: 410 nM
SMILES: N#Cc1cnc2c(Cl)cc(NC[C@H]3C[C@H](O)CO3)cc2c1Nc1ccc(F)c(Cl)c1 [Example 932]

IC50 [4]: 390 nM
SMILES: N#Cc1cnc2c(Cl)cc(NCC(=O)N3CCCCCC3)cc2c1Nc1ccc(F)c(Cl)c1 [Example 885]

IC50 [4]: 130 nM
SMILES: CC(C)(C)OC(=O)N1CCC(CCn2cc(CNc3cc(Br)c4ncc(C#N)c(Nc5ccc(F)c(Cl)c5)c4c3)nn2)CC1 [Example 675]

IC50 [4]: 6.7 nM
SMILES: CN(C)CCC(c1cccnc1)n1cc(CNc2cc(Br)c3ncc(C#N)c(Nc4ccc(F)c(Cl)c4)c3c2)nn1 (stereo not drawn) [Example 757]

IC50 [4]: 200 nM
SMILES: CC(C)(C)OC(=O)N1CCC[C@H]1Cn1cc(CNc2cc(Cl)c3ncc(C#N)c(Nc4ccc(F)c(Cl)c4)c3c2)nn1 [Example 888]

IC50 [4]: 7.6 nM
SMILES: N#Cc1cnc2c(Cl)cc(NCc3cn(C[C@@H]4CCCN4)nn3)cc2c1Nc1ccc(F)c(Cl)c1 [Example 890]

IC50 [1]: 1100 nM
SMILES: N#Cc1cnc2c(Cl)cc(NCc3cn(C4CCNCC4)nn3)cc2c1NC1CCOCC1 [Example 987]

IC50 [1]: 860 nM
SMILES: CC(C)N1CCC(c2cc(CNc3cc(Br)c4ncc(C#N)c(Nc5ccc(F)c(Cl)c5)c4c3)[nH]n2)CC1 [Example 1044]

IC50 [1]: 1130 nM
SMILES: CN1CCCC1CCn1cc(CNc2cc(Cl)c3ncc(C#N)c(NC4CCOCC4)c3c2)nn1 (stereo not drawn) [Example 952]

IC50 [4]: 140 nM
SMILES: N#Cc1cnc2c(Br)cc(NCC(=O)O)cc2c1Nc1ccc(F)c(Cl)c1 [Example 798]

IC50 [2]: > 3000 nM
SMILES: N#Cc1cnc2c(Cl)cc(NCC(CO)c3ccncc3)cc2c1Nc1ccc(F)c(Cl)c1 (stereo not drawn) [Example 637]

IC50 [4]: 91 nM
SMILES: N#Cc1cnc2c(Cl)cc(NCc3cn(CCOCCOCCO)nn3)cc2c1Nc1ccc(F)c(Cl)c1 [Example 742]

IC50 [1]: 17 nM
SMILES: N#Cc1cnc2c(Cl)cc(NCc3cn(C4CCC(NC5CCCC5)CC4)nn3)cc2c1Nc1ccc(F)c(Cl)c1 (stereo not drawn) [Example 1038]

IC50 [2]: 41 nM
SMILES: N#Cc1cnc2c(Cl)cc(NCc3cn(Cc4ccccn4)cn3)cc2c1Nc1ccc(F)c(Cl)c1 [Example 621]

IC50 [1]: 11 nM
SMILES: N#Cc1cnc2c(Cl)cc(NCc3cn(C4CC5CCC(C4)N5)nn3)cc2c1Nc1ccc(F)c(Cl)c1 (stereo not drawn) [Example 997]

Second part, the molecule before the results:

SMILES: N#Cc1cnc2ccc(NCc3ccccn3)cc2c1NC1CCCCC1 [Example 360]
IC50 [2]: 210 nM

SMILES: CC(C)c1nc[nH]c1CNc1cc(Cl)c2ncc(C#N)c(Nc3ccc(F)c(Cl)c3)c2c1 [Example 214, 8-chloro-4-[(3-chloro-4-fluorophenyl)amino]-6-{[(4-isopropyl-1H-imidazol-5-yl)methyl]amino}quinoline-3-carbonitrile]
IC50 [3]: 16 nM

SMILES: COc1ccc(CNc2ccc3ncc(C#N)c(Nc4ccc(F)c(F)c4)c3c2)cn1 [Example 340]
IC50 [2]: 440 nM

SMILES: CC(C)NC(=O)c1cc(NCc2cccnc2)cc2c(Nc3ccc(F)c(Cl)c3)c(C#N)cnc12 [Example 93, 4-(3-chloro-4-fluorophenylamino)-3-cyano-N-isopropyl-6-(pyridin-3-ylmethylamino)quinoline-8-carboxamide]
IC50 [3]: > 40000 nM

SMILES: CC(=O)c1cc(NCc2cnc[nH]2)cc2c(Nc3ccc(F)c(Cl)c3)c(C#N)cnc12 [Example 459]
IC50 [2]: 23 nM

SMILES: CC(c1ccccc1)n1cc(CNc2cc(Cl)c3ncc(C#N)c(Nc4ccc(F)c(Cl)c4)c3c2)nn1 (stereo not drawn) [Example 586]
IC50 [2]: 96 nM

SMILES: CC(C)(C)Nc1c(C#N)cnc2ccc(NCc3cccc(C#N)c3)cc12 [Example 403]
IC50 [2]: 11500 nM

SMILES: Cc1ccc[n+]([O-])c1CNc1cc(Cl)c2ncc(C#N)c(Nc3ccc(F)c(Cl)c3)c2c1 [Example 196, 8-chloro-4-[(3-chloro-4-fluorophenyl)amino]-6-{[(3-methyl-1-oxidopyridin-2-yl)methyl]amino}quinoline-3-carbonitrile]
IC50 [3]: 66 nM

SMILES: Cc1cc(CNc2ccc3ncc(C#N)c(Nc4ccc(F)c(Cl)c4)c3c2)n[nH]1 [Example 31, 4-(3-Chloro-4-fluoro-phenylamino)-6-[(5-methyl-1 H-pyrazol-3-ylmethyl)-amino]-quinoline-3-carbonitrile]
IC50 [3]: 110 nM

SMILES: N#Cc1cnc2c(Br)cc(NCc3[nH]nnc3-c3ccccc3)cc2c1Nc1ccc(F)c(Cl)c1 [Example 311, 8-bromo-4-[(3-chloro-4-fluorophenyl)amino]-6-{[(4-phenyl-1H-1,2,3-triazol-5-yl)methyl]amino}quinoline-3-carbonitrile]
IC50 [3]: 12 nM

SMILES: C[C@@H](Nc1ccc2ncc(C#N)c(Nc3ccc(F)c(Cl)c3)c2c1)c1ccccn1 [Example 172, (R)-4-(3-chloro-4-fluorophenylamino)-6-(1-(pyridin-2-yl)ethylamino)quinoline-3-carbonitrile]
IC50 [3]: 84 nM

SMILES: N#Cc1cnc2ccc(NCc3nccn3CC(N)=O)cc2c1Nc1ccc(F)c(Cl)c1 [Example 139, 2-(2-((4-(3-chloro-4-fluorophenylamino)-3-cyanoquinolin-6-ylamino)methyl)-1H-imidazol-1-yl)acetamide]
IC50 [3]: 99 nM

SMILES: N#Cc1cnc2c(C#N)cc(NCc3cccnc3)cc2c1Nc1cccc(Cl)c1 [Example 74, 4-(3-chlorophenylamino)-6-(pyridin-3-ylmethylamino)quinoline-3,8-dicarbonitrile]
IC50 [3]: 140 nM

SMILES: N#Cc1cnc2c(F)cc(NCc3cncn3O)cc2c1Nc1ccc(F)c(Cl)c1 [Example 437]
IC50 [2]: 200 nM

SMILES: Cn1cc(CNc2ccc3ncc(C#N)c(Nc4ccc(F)c(F)c4)c3c2)ccc1=O [Example 343]
IC50 [2]: 1040 nM

SMILES: CCc1nc(CNc2cc(Cl)c3ncc(C#N)c(Nc4ccc(F)c(Cl)c4)c3c2)cn1CC(N)=O [Example 193, 2-(4-((8-chloro-4-(3-chloro-4-fluorophenylamino)-3-cyanoquinolin-6-ylamino)methyl)-2-ethyl-1H-imidazol-1-yl)acetamide]
IC50 [3]: 410 nM

SMILES: CC(O)c1cc(NCc2cnc[nH]2)cc2c(Nc3ccc(F)c(Cl)c3)c(C#N)cnc12 (stereo not drawn) [Example 463]
IC50 [2]: 260 nM

SMILES: N#Cc1cnc2c(Br)cc(NCc3cnc(-c4ccccc4)[nH]3)cc2c1Nc1ccc(F)c(Cl)c1 [Example 106, 8-bromo-4-(3-chloro-4-fluorophenylamino)-6-((2-phenyl-1H-imidazol-5-yl)methylamino)quinoline-3-carbonitrile]
IC50 [3]: 5900 nM

SMILES: CC(C)(C)OC(=O)N1CCCN(CCCn2cc(CNc3cc(Cl)c4ncc(C#N)c(Nc5ccc(F)c(Cl)c5)c4c3)nn2)CC1 [Example 590]
IC50 [2]: 120 nM

SMILES: CC(C)(C)S(=O)(=O)Nc1c(C#N)cnc2ccc(NCc3cnc[nH]3)cc12 [Example 180, N-(6-((1H-imidazol-5-yl)methylamino)-3-cyanoquinolin-4-yl)-2-methylpropane-2-sulfonamide]
IC50 [3]: > 40000 nM

SMILES: N#Cc1cnc2ccc(NCCN3CCOCC3)cc2c1NC1CCCC1 [Example 419]
IC50 [2]: 19700 nM

SMILES: N#Cc1cnc2c(Cl)cc(NCc3cn(C4CCC5(CC4)OCCO5)nn3)cc2c1Nc1ccc(F)c(Cl)c1 [Example 332, 8-chloro-4-[(3-chloro-4-fluorophenyl)amino]-6-({[1-(1,4-dioxaspiro[4.5]dec-8-yl)-1H-1,2,3-triazol-4-yl]methyl}amino)quinoline-3-carbonitrile]
IC50 [3]: 39 nM

SMILES: CC(O)Cn1cc(CNc2cc(Br)c3ncc(C#N)c(Nc4ccc(F)c(Cl)c4)c3c2)nn1 (stereo not drawn) [Example 487]
IC50 [2]: 11 nM

SMILES: N#Cc1cnc2c(C(F)(F)F)cc(NCc3cccn3S(=O)(=O)c3ccccc3)cc2c1Nc1ccc(F)c(Cl)c1 [Example 237, 4-[(3-chloro-4-fluorophenyl)amino]-6-({[1-(phenylsulfonyl)-1H-pyrrol-2-yl]methyl}amino)-8-(trifluoromethyl)quinoline-3-carbonitrile]
IC50 [3]: 24800 nM

SMILES: COCCOc1ccc(CNc2ccc3ncc(C#N)c(Nc4ccc(F)c(Cl)c4)c3c2)cc1Br [Example 371]
IC50 [2]: 380 nM

SMILES: N#Cc1cnc2ccc(NCc3ccc(S(N)(=O)=O)cc3)cc2c1Nc1ccc(F)c(Cl)c1 [Example 121, 4-((4-(3-chloro-4-fluorophenylamino)-3-cyanoquinolin-6-ylamino)methyl)benzenesulfonamide]
IC50 [3]: 114 nM
